Source: patent US20230190870A1, “Method for Treating Lysosomal Storage Diseases with Histatin Peptides” (THE BOARD OF TRUSTEES OF THE UNIVERSITY OF ILLINOIS, priority 2020, published 2023)
Entries after “also recorded” stand apart in the source; their conditions may differ. Square brackets hold non-standard residues; d marks the D form. Peptide text beside a SMILES is read from it. pS = N[C@@H](COP(=O)(O)O)C(=O)O

Assays:
HCE cells = assay: Wound healing in vitro scratch assay; assay type: cell-based, human
Description: (§1) Transfection/Knock-Down of TMEM97. Sub-confluent monolayers of HCE cells in grown in 35-mm six-well plates were transfected with reaction mixtures composed of 100 pmol of small interfering RNA (siRNA) to TMEM97 (Santa Cruz Biotechnology; Dallas, Tex.) for 48 hours and 5 μL of transfection reagent sold under the tradename LIPOFECTAMINE® 2000 (Invitrogen; Carlsbad, Calif.) in culture medium sold under the tradename OPTI-MEMO media (Gibco Life Technologies; Grand Island, N.Y.). Complexes were incubated for 20 minutes at 24° C. and then added to cells at 37° C. Incubation was continued for 24 to 48 hours at 37° C. in 5% CO2. Knock-down (KD) of TMEM97 was confirmed by western blot analysis using a rabbit anti-TMEM97 antibody (Novus Bio.; Littleton, Colo.).
Wound Healing in vitro Scratch Assay. HCE cells were cultured in a 96-well plate at 5×10^4 (cells/well) seeding density, and were grown to confluence. Subsequently, a straight line scratch mark was made with a multiscratch wound maker (IncuCyte® 96-well WoundMaker Tool, Essen Biosciences; Ann Arbor, Mich.). The cells were then washed twice with PBS to remove cellular debris. […] The wound areas were measured using ImageJ software (ImageJ 1.47v, NIH, Thornwood; Bethesda, Md.). Relative wound closure was calculated by dividing the closure of the treated wound by that of the untreated control wound. […]

TMEM97 = TMEM97 (Homo sapiens, UniProt Q5BJF2); assay: Co-immunoprecipitation / western blot in HCE cells; assay type: binding; parameters: endogenous in cells; host or cells: HCE cells; settings: 20 μM Hst1 for 6 hours, IP TMEM97 antibody
Description: Immunoprecipitation/Western Blot Analysis. The day before, HCE cells were plated at the concentration of 5×10^6 cells/well in a 100 mm dish and were treated with 20 μM of Hst1 for 6 hours. Cells were harvested with lysis buffer (1% NP40, 137 mM sodium chloride, 20 mM Tris [pH 8.0], and 10% glycerol) and the lysates were incubated with 5 μL of a validated rabbit polyclonal anti-TMEM97 antibody (Novus Bio.; Littleton, Colo.) overnight at 4° C. The lysates were incubated with 30 μL of a suspension of protein A/G (Santa Cruz Biotechnology; Dallas, Tex.) for 2 hours at 4° C. with gentle shaking. After centrifugation for 5 minutes, pellets were washed three times and resuspended in 50 μL of 2×NUPAGE® LDS sample buffer (Invitrogen; Carlsbad, Calif.) and boiled for 10 minutes.
For detecting Hst1 bound to TMEM97 protein, the lysates were subjected to electrophoresis on 12% NUPAGE® Bis-Tris gels (Invitrogen; Carlsbad, Calif.), followed by transfer to nitrocellulose membranes (Amersham Protran, GE Healthcare; Pittsburgh, Pa.). Membranes were then blocked with Tris-buffered saline containing 3% nonfat dry milk for 1 hour and incubated with rabbit primary antibody against Hst1 (Mybiosource; San Diego, Calif.) (1:1000) overnight at 4° C. […]

[1] = test system: human corneal epithelial (HCE) cells; assay: Boyden chamber cell migration assay; assay type: cell-based
Description: as §1
Cell Migration Assay. HCE migration assays were performed in a 48-well micro-chemotaxis chamber (Neuro Probe, Inc.; Cabin John, Md.), following the manufacturer's instructions and following a modification of prior reports. Polyester membranes (Neuro Probe, Inc.; Gaithersburg, Md.) with 12 μm pores were used. Cells were incubated with Hst1 for 6 hours, harvested using Versene (Life Technologies, Corp.; Grand Island, N.Y.), resuspended in RPMI-1640 medium (Life Technologies, Corp.; Grand Island, N.Y.) containing 0.5% FBS. The bottom chamber was loaded with RPMI-1640 media containing 2% FBS, and the filter was laid over the media. […]

[2] = test system: NPC1 (I1061T mutant) homozygous patient fibroblasts; assay: Cellular calcium in NPC1 (I1061T mutant) patient fibroblasts; assay type: cell-based, human
NPC1 patient fibroblasts = assay: Gene expression in NPC1 patient fibroblasts; assay type: cell-based, human
[3] = test system: Human corneal epithelial cells; assay: Calcium Green-2 calcium signaling in human corneal epithelial cells; assay type: cell-based
Description: Calcium Signaling. Human corneal epithelial cells were treated with Hst1 or Hst5, stained with Calcium Green-2, and relative fluorescence intensity was monitored at 1, 2 and 4 hours. […] This normalization of cellular calcium levels seen after toxicity from benzalkonium chloride treatment is analogous to toxic effects seen in chronic pain and other conditions. As such, histatin peptides may of use in the amelioration of chronic pain.

Sequence of TMEM97 (Q5BJF2 whole entry): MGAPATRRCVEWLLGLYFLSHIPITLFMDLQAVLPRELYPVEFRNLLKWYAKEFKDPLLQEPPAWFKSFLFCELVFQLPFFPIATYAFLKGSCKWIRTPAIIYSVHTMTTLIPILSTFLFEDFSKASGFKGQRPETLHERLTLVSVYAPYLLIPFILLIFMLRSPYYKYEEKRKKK

CC(C)C[C@H](NC(=O)[C@H](Cc1ccc(O)cc1)NC(=O)[C@H](CC(N)=O)NC(=O)[C@H](CO)NC(=O)CNC(=O)[C@H](Cc1ccc(O)cc1)NC(=O)[C@H](CC(=O)O)NC(=O)CNC(=O)[C@H](Cc1ccc(O)cc1)NC(=O)[C@H](Cc1ccccc1)NC(=O)[C@@H]1CCCN1C(=O)[C@H](Cc1ccccc1)NC(=O)[C@H](CCC(=O)O)NC(=O)[C@H](CCCNC(=N)N)NC(=O)[C@H](Cc1c[nH]cn1)NC(=O)[C@H](CO)NC(=O)[C@H](Cc1c[nH]cn1)NC(=O)[C@H](Cc1c[nH]cn1)NC(=O)[C@H](CCCCN)NC(=O)[C@H](CCC(=O)O)NC(=O)[C@H](Cc1c[nH]cn1)NC(=O)[C@H](Cc1ccccc1)NC(=O)[C@H](CCCCN)NC(=O)[C@H](CCCNC(=N)N)NC(=O)[C@H](CCCNC(=N)N)NC(=O)[C@H](Cc1ccc(O)cc1)NC(=O)CNC(=O)[C@H](Cc1c[nH]cn1)NC(=O)[C@H](Cc1c[nH]cn1)NC(=O)[C@H](CCCNC(=N)N)NC(=O)[C@H](CCCCN)NC(=O)[C@H](CCC(=O)O)NC(=O)[C@H](Cc1c[nH]cn1)NC(=O)[C@H](COP(=O)(O)O)NC(=O)[C@@H](N)CC(=O)O)C(=O)N[C@@H](Cc1ccc(O)cc1)C(=O)N[C@@H](CC(=O)O)C(=O)N[C@@H](CC(N)=O)C(=O)O [Hst1] (H-D[pS]HEKRHHGYRRKFHEKHHSHREFPFYGDYGSNYLYDN-OH; N-terminus and C-terminus assumed)
scratch closure / wound healing rate (HCE cells; 20 or 50 μM, 8 and 16 hours, versus untreated control): increases in wound healing rates; also recorded: statistically significant improvement in scratch closure rates | wound closure response in TMEM97 KD cells (HCE cells; siRNA knock-down of TMEM97): abolished this responsiveness; also recorded: loss of this response | co-precipitation with TMEM97 (TMEM97): co-precipitated with TMEM97 | transmigration response in TMEM97 KD cells ([1]; siRNA knock-down of TMEM97): inhibits; also recorded: abolished this response | cellular transmigration ([1]; toward 2% FBS stimulus): dose-dependent increase in cellular transmigration | cellular calcium levels [2]: increased cellular calcium levels | HMG-CoA reductase gene expression (NPC1 patient fibroblasts): reducing HMG-CoA reductase gene expression | NPC1 gene expression (NPC1 patient fibroblasts): increasing NPC1 gene expression | calcium signaling (relative fluorescence intensity) ([3]; 1, 2 and 4 hours): increases calcium signaling | elevated calcium levels after benzalkonium chloride ([3]; cells treated with 0.001% BAK): reduced elevated calcium levels
